Molecules are shown by their SMILES.

The test system of test [1] is MCF7 breast, A2780 ovarian and PC3 and LNCAP prostate cancer cells. The experiment in a line: CyQuant cell proliferation assay (Activity Assay 2). The test is classed as cell-based. The conditions noted are these: Homo sapiens; cell line not given; read-out: Cell growth inhibition IC50. How it is done: Typically in this embodiment, said assay is performed using the CyQuant™ assay system (Moelcular Probes, Inc. USA).

Test [2] relates to HDAC (Hela Nuclear Extract). The experiment in a line: In vitro HDAC fluorescent activity assay (Activity Assay 1). The settings on record: read-out: Inhibition of HDAC activity IC50, compounds reduced with DTT prior to analysis.
Description: In vitro HDAC assays were performed using a HDAC fluorescent activity assay kit (Biomol, UK) according to the manufacturer's instructions. Compounds were reduced prior to analysis; 1 mM compound was reduced with 30 mM DTT in DMSO overnight at room temperature, protected from light. Reactions were then set up in a 96-well plate. […] Serial dilutions were set up for each compound. Reactions containing Hela extract only and assay buffer only were also set up. 25 μl diluted Fluor de LYS™ substrate (100-fold in assay buffer) was added to each reaction, which were then incubated at 37° C. for 1 hour. The reaction was stopped by addition of 50 μl Fluor de LYS™ Developer (20-fold dilution in assay buffer, plus TSA diluted 100-fold). […] Inhibition of in vitro HDAC activity was determined for mean values of duplicate samples as percentages relative to HeLa extract only reactions. IC50 values were calculated using GraphPad Prism software.
Test [3] concerns TNFα secretion from PBMCs. The experiment in a line: TNF-α immunoassay in LPS-stimulated PBMCs (Activity Assay 3). The settings on record: normalized to 10 pg LPS alone (=100.00).
Description: TNF-α immunoassays were carried out using the Quantikine® Human TNF-α assay kit (R&D systems, Abingdon UK) according to the manufacturer's instructions. […] Compounds were added 1 hour later in volumes of 100 μl at 6× final concentration. Five hours later, lipopol ysaccharide (LSP, Sigma, Poole, UK) was added in a volume of 10 μl at 60× final concentration plates were mixed and left overnight at 37° C. 5% CO2. Plates were centrifuged and cell supernatant was transferred to a new plate. The Quantikine® assay reagents and standards were prepared according to the manufacturer instructions. The Quantikine® assay plate was prepared by adding 50 μl of assay dilutent RD1F into each well. This was followed by 200 μl of standard or 100 μl of calibrator dilutent plus 100 μl cell supernatant; this was incubated for 2 hours at room temperature (RT). The plate was washed using wash buffer 4 times. After the final wash the plate was tapped on clean paper towel to remove all residual buffer. 200 μl of TNF-α conjugate was added to each well and incubated for 1 hour at RT. The plate was then washed as before. The required amount of substrate solution was prepared by adding equal volumes of colour reagents A and B, protecting from light, 200 μl of this mix was added to each well and incubated for 20 mins at RT, protected from light. 50 μl of stop solution was added to each well in the same order as the substrate solution and the plate was read on a Biorad 680 96 well plate reader (Bio-Rad, Hemel Hempstead, UK) at 450 nm with λ correction at 570 nm. TNF-α levels were determined for mean values of duplicate samples using absorbance in nm, calibration zero values were subtracted from all results to correct for the addition of calibrator diluent in the assay.

The IC50 is the point on the concentration scale where inhibition reaches its midpoint. On to `CC(C)[C@H]1NC(=O)[C@H]2CSSCC/C=C/[C@H](CC(=O)N[C@H](Cc3cn(C(=O)OC(C)(C)C)c4ccccc34)C(=O)N2)OC(=O)C[C@@H]1O` [Compound 7B, 3-((E)-(1S,5S,6R,9 S,20R)-5-Hydroxy-6-isopropyl-3,8,18,21-tetraoxo-2-oxa-11,12-dithia-7,19,22-triaza-bicyclo[7.7.6]docos-15-en-20-ylmethyl)-indole-1-carboxylic acid tert-butyl ester], for which the IC50 in test [1] came out at 0.65 nM; in test [2], 436 nM.
Regarding `O=C1C[C@H]2/C=C/CCSSC[C@@H](NC(=O)[C@@H](Cc3ccccc3)N1)C(=O)N[C@H](Cc1ccccc1)[C@@H](O)CC(=O)O2` [Compound 7E, (E)-(1S,5S,6R,9S,20R)-6,20-dibenzyl-5-hydroxy-2-oxa-11,12-dithia-7,19,22-triaza-bicyclo[7.7.6]docos-15-ene-3,8,18,21-tetraone], the figures for the IC50 in test [1] and in test [2] were 3.2 nM and 30 nM, respectively.
Take `CC(C)[C@H]1NC(=O)[C@H]2CSSCC/C=C/[C@H](CC(=O)N[C@H](Cc3ccccc3)C(=O)N2)OC(=O)C[C@@H]1O` [Compound 7A]: the “TNFα Secretion (Normalized*)” value is given as 63.90 in test [3] (Cells + 10 pg LPS + 0.025 nM compound); 58.12 in test [3] (Cells + 10 pg LPS + 0.05 nM compound); 45.45 in test [3] (Cells + 10 pg LPS + 0.1 nM compound); 31.11 in test [3] (Cells + 10 pg LPS + 0.2 nM compound); 18.66 in test [3] (Cells + 10 pg LPS + 0.4 nM compound); −0.26 in test [3] (Cells + 0.025 nM compound, no LPS). Further, the “TNFα Secretion (Normalized*)” value in test [3] (Cells + 0.05 nM compound, no LPS) is recorded as −0.06; in test [3] (Cells + 0.1 nM compound, no LPS), −0.08; in test [3] (Cells + 0.2 nM compound, no LPS), −0.03; in test [3] (Cells + 0.4 nM compound, no LPS), 0.13. Also, the IC50 in test [1] turned out to be 0.07 nM; in test [2], 3.3 nM.
Turning to `C[C@H]1NC(=O)C[C@H]2/C=C/CCSSC[C@@H](NC1=O)C(=O)N[C@H](Cc1ccccc1)[C@@H](O)CC(=O)O2` [Compound 7D, (E)-(1S,5S,6R,9S,20R)-6-Benzyl-5-hydroxy-20-methyl-2-oxa-11,12-dithia-7,19,22-triaza-bicyclo[7.7.6]docos-15-ene-3,8,18,21-tetraone], the IC50 came out at 55 nM in test [1] and 18 nM in test [2].
On to `CC(C)C[C@H]1NC(=O)C[C@H]2/C=C/CCSSC[C@@H](NC1=O)C(=O)N[C@H](C(C)C)C(O)CC(=O)O2` (stereo in doubt) [Compound 7C, (E)-(1S,5R,6R,9S,20R)-5-Hydroxy-20-isobutyl-6-isopropyl-2-oxa-11,12-dithia-7,19,22-triaza-bicyclo[7.7.6]docos-15-ene-3,8,18,21-tetraone], for which the IC50 in test [1] was 0.23 nM; in test [2], 11 nM.

Values taken from US8247372B2 (University of Southampton, priority 2006, dated 2012).
